ChEMBL document CHEMBL4425114, “Development of Novel Alkoxyisoxazoles as Sigma-1 Receptor Antagonists with Antinociceptive Efficacy” (J Med Chem, 2016)
The source made the active and inactive calls. The rule behind the calls is not given here.

Tests used:
[1] = target: T1, Sigma intracellular receptor 2 (Rattus norvegicus, UniProt Q5U3Y7); assay: Displacement of [3H]DTG from rat brain sigma2 receptor by PDSP assay
T1 sequence (Q5U3Y7 whole entry): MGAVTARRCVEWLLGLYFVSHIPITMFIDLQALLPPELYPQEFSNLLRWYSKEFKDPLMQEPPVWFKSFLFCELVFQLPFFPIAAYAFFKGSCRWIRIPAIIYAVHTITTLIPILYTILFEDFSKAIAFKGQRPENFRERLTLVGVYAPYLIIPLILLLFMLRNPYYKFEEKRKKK

[2] = target: Sigma non-opioid intracellular receptor 1 (Rattus norvegicus, UniProt Q9R0C9); assay: Displacement of [3H]-pentazocine from rat brain sigma1 receptor by PDSP assay
[3] = target: Sigma non-opioid intracellular receptor 1 (Cavia porcellus) (UniProt Q60492); assay: Binding affinity to sigma1 receptor form guinea pig brain membrane in presence of phenytoin […]
[4] = Permeability of the compound after 18 hrs by PAMPA assay; assay type: ADME; conditions: read-out: permeability
[5] = target: T2, Sigma intracellular receptor 2 (Rattus norvegicus) (UniProt Q5U3Y7); assay: Displacement of [3H]DTG from rat brain sigma2 receptor at 10 uM by PDSP assay
T2 sequence (whole entry): T1 sequence (Q5U3Y7 whole entry)

[6] = Toxicity in Kun Ming mouse assessed as decrease in rotarod latency at 40 mg/kg, ip measured after 60 to 120 mins by rotarod test relative to vehicle-treated control; assay type: organism-based; conditions: in vivo
[7] = target: Sigma non-opioid intracellular receptor 1 (Rattus norvegicus) (UniProt Q9R0C9); assay: Displacement of [3H]-pentazocine from rat brain sigma1 receptor at 10 uM by PDSP assay
Mus musculus = assay: Antinociceptive activity in Kun Ming mouse assessed as reduction in paw licking and flinching time at 80 mg/kg, ip administered 15 mins prior to formalin challenge measured up to 45 mins post formalin dosing relative to vehicle-treated control; assay type: functional, organism-based
[8] = target: Sodium-dependent noradrenaline transporter (Homo sapiens, UniProt P23975); assay: Displacement of [3H]nisoxetine from human NET expressed in HEK293 cells measured after 30 mins; assay type: cell-based
[9] = target: T3, Sodium-dependent dopamine transporter (Homo sapiens, UniProt Q01959)
Description: Displacement of [3H]-WIN35428 from human DAT expressed in HEK293 cells measured after 30 mins

[10] = target: T4, Sodium-dependent serotonin transporter (Homo sapiens, UniProt P31645); assay: biochemical; assay type: cell-based, HEK293
Target sequence in this assay (P31645 whole entry): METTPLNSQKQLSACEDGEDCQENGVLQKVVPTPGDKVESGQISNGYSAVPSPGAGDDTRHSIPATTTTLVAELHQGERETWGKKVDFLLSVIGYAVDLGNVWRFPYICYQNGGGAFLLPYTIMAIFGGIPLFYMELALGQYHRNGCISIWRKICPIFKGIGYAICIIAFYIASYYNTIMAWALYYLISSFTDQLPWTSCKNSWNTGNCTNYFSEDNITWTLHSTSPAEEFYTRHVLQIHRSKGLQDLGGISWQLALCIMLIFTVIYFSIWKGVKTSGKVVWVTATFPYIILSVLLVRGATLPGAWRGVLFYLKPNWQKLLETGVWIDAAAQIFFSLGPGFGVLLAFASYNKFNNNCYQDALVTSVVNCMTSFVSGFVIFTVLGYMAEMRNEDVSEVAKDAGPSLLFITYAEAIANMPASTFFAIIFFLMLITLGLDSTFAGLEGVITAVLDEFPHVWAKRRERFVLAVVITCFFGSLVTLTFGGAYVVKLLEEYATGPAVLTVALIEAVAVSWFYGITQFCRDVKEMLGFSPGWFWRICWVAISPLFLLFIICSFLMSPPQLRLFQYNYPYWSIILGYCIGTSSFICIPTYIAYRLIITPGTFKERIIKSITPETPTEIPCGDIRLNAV
Description: Displacement of [3H]citalopram from human SERT expressed in HEK293 cells measured after 30 mins

[11] = target: T4, Sodium-dependent serotonin transporter; conditions: HEK293, at 10 µM
Target sequence in this assay (P31645 whole entry, looked up): as the sequence (P31645 whole entry) above
Description: Displacement of [3H]citalopram from human SERT expressed in HEK293 cells at 10 uM measured after 30 mins

[12] = target: T3, Sodium-dependent dopamine transporter; assay: Displacement of [3H]-WIN35428 from human DAT expressed in HEK293 cells at 10 uM measured after 30 mins; assay type: cell-based

Sequence of Sodium-dependent noradrenaline transporter (P23975 whole entry): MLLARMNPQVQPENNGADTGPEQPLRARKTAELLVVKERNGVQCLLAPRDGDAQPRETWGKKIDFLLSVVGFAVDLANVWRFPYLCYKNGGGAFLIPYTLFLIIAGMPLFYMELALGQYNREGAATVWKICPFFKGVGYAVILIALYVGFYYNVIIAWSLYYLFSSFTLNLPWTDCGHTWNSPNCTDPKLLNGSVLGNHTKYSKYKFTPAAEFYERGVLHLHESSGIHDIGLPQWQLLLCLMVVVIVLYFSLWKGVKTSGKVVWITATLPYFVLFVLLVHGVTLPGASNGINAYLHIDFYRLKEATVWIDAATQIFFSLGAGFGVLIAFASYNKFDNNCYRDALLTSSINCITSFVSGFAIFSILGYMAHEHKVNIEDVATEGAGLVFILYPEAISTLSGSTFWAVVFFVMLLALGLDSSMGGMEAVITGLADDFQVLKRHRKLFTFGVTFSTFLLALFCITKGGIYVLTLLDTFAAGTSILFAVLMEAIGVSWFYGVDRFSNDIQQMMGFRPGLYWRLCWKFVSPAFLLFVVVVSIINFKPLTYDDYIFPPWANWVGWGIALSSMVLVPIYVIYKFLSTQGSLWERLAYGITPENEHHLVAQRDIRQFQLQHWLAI
Sequence of Sigma non-opioid intracellular receptor 1 (Rattus norvegicus) (Q9R0C9 whole entry): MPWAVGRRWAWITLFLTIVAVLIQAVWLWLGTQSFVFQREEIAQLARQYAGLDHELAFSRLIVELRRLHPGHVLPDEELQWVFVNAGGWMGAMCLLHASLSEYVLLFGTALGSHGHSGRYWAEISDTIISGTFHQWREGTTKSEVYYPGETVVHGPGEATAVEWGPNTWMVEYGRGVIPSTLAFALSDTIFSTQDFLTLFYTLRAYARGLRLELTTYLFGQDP
Sequence of Sigma non-opioid intracellular receptor 1 (Q9R0C9 whole entry): as above
T3 sequence (Q01959 whole entry): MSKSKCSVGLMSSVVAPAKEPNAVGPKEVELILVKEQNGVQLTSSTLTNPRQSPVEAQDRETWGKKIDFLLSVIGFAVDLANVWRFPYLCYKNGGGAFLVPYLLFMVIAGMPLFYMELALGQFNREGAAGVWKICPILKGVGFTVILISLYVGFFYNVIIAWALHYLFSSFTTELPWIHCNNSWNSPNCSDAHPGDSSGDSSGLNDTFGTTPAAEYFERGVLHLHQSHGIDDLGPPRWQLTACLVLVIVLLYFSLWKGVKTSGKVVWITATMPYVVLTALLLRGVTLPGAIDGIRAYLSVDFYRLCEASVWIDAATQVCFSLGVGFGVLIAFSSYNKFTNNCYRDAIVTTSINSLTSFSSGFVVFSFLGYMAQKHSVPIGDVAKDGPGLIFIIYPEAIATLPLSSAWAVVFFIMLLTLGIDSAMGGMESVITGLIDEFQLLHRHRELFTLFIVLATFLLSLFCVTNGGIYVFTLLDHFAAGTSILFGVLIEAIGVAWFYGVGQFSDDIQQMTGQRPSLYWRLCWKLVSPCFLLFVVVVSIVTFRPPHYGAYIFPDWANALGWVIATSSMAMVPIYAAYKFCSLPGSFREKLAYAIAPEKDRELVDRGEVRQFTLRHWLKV
Sequence of Sigma non-opioid intracellular receptor 1 (Cavia porcellus) (Q60492 whole entry): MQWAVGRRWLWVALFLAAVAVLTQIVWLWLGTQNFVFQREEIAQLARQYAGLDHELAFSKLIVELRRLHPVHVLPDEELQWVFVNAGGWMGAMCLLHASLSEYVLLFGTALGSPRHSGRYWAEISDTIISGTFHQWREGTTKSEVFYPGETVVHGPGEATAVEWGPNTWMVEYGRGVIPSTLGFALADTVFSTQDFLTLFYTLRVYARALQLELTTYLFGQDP

| Compound | Ki [1] [nM] | Ki [2] [nM] | also measured |
| --- | --- | --- | --- |
| c1ccc(OCc2cc(OCC3CCNCC3)no2)cc1 | 284 | 356 |  |
| CN(CCOc1cc(COc2cccc(F)c2)on1)C1CCCCC1 | 24.5 | 0.5 |  |
| Cc1cccc(OCc2cc(OC[C@@H]3CCCN3)no2)c1 | 341 | 4 |  |
| c1ccc(OCc2cc(OC[C@@H]3CCCN3)no2)cc1 |  |  | Activity [3]: inactive; Papp at 18 h [4]: 2 to 4 ×10⁻⁶ cm/s |
| O=C(Nc1ccccc1)c1cc(OC[C@@H]2CCCN2)no1 | > 10000 | 130 | inhibition [5]: < 50% |
| Brc1cccc(OCc2cc(OC[C@@H]3CCCN3)no2)c1 | 85.9 | 3.2 |  |
| Brc1ccc(OCc2cc(OC[C@@H]3CCCN3)no2)cc1 | 137 | 18.3 |  |
| CC(C)C[C@H](CN)CC(=O)O [PREGABALIN] |  |  | Activity [6]: Toxic |
| CN(CCOc1cc(COc2cccc(Cl)c2)on1)C1CCCCC1 | 15.1 | 0.5 |  |
| FC(F)(F)c1ccc(OCc2cc(OC[C@@H]3CCCN3)no2)cc1 | 91.7 | 13.3 |  |
| O=C(Oc1ccccc1)c1cc(OC[C@@H]2CCCN2)no1 | > 10000 | > 10000 | inhibition [5]: < 50%; inhibition [7]: < 50% |
| NCCOc1cc(COc2ccccc2)on1 | > 10000 | 63.9 | inhibition [5]: < 50% |
| CN1CCC(COc2cc(COc3ccccc3)on2)CC1 | 216 | 96.4 |  |
| c1ccc(OCc2cc(N3CCCCC3)no2)cc1 | > 10000 | > 10000 | inhibition [5]: < 50%; inhibition [7]: < 50% |
| Cc1cc(OCCN2CCOCC2)nn1-c1ccc2ccccc2c1 |  |  | Activity [3]: inactive; Papp at 18 h [4]: 2 to 4 ×10⁻⁶ cm/s; Activity (Mus musculus): Active |
| CNCCOc1cc(COc2ccccc2)on1 | > 10000 | 80.8 | inhibition [5]: < 50% |
| c1ccc2cc(OCc3cc(OC[C@@H]4CCCN4)no3)ccc2c1 | 153 | 36.6 |  |
| c1ccc(OCc2cc(OC[C@H]3CCCN3)no2)cc1 | 508 | 37.4 |  |
| COc1ccc(OCc2cc(OC[C@@H]3CCCN3)no2)cc1 | 675 | 210 |  |
| Fc1ccc(OCc2cc(OC[C@@H]3CCCN3)no2)cc1 | 471 | 4.4 |  |
| O=C(Nc1ccccc1)OCc1cc(OC[C@@H]2CCCN2)no1 | > 10000 | 299 | inhibition [5]: < 50% |
| Cl.Fc1cccc(OCc2cc(OC[C@@H]3CCCN3)no2)c1 | 277 | 1.4 | Activity [3]: inactive; Papp at 18 h [4]: 2 to 4 ×10⁻⁶ cm/s |
| c1ccc(OCc2cc(OCCN3CCOCC3)no2)cc1 | > 10000 | 403 | inhibition [5]: < 50% |
| COc1cccc(OCc2cc(OC[C@@H]3CCCN3)no2)c1 | > 10000 | 31.1 | inhibition [5]: < 50% |
| Fc1ccccc1OCc1cc(OC[C@@H]2CCCN2)no1 | 396 | 6 to 6.1 | Ki [8]: 1080 nM; Ki [9]: > 10000 nM; inhibition [7]: > 50%; Ki [10]: > 10000 nM; inhibition [11]: < 50%; inhibition [12]: < 50% |

| Compound | Ki [1] [nM] | Ki [2] [nM] | also measured |
| --- | --- | --- | --- |
| CCN(C)CCOc1cc(COc2ccccc2)on1 | 820 | 18.4 |  |
| CN(CCOc1cc(COc2cccc(Cl)c2)on1)CC1CC1 | 123 | 1.1 |  |
| CN(CCOc1cc(COc2ccccc2)on1)C1CCC1 | 307 | 1.8 | Activity [3]: inactive |
| CN(C)CCOc1cc(COc2ccccc2)on1 | > 10000 | > 10000 | inhibition [5]: < 50%; inhibition [7]: < 50% |
| CN1CCC[C@H]1COc1cc(COc2cccc(Cl)c2)on1 | 371 | 1.4 |  |
| CN(CCOc1cc(COc2ccccc2)on1)C1CCCCC1 | 18.7 | 0.3 | Ki [8]: > 10000 nM; Ki [9]: > 10000 nM; inhibition [7]: > 50%; Ki [10]: > 10000 nM; inhibition [11]: < 50%; inhibition [12]: < 50% |
| Cl.c1ccc(OCc2cc(N3CCNCC3)no2)cc1 | 221 | 5.3 | Papp at 18 h [4]: 7.36 ×10⁻⁶ cm/s; Ki [8]: 163 nM; Ki [9]: 497 nM; inhibition [7]: > 50%; Ki [10]: > 10000 nM; inhibition [11]: < 50%; inhibition [12]: > 50% |
| CN(CCOc1cc(COc2ccccc2)on1)C1CCCC1 | 73.7 | 0.5 |  |
| NCCCOc1cc(COc2ccccc2)on1 | > 10000 | 2310 | inhibition [5]: < 50% |
| FC(F)(F)c1cccc(OCc2cc(OC[C@@H]3CCCN3)no2)c1 | 88 | 6.6 |  |
| Fc1ccc(C(OCCN2CCN(CCCc3ccccc3)CC2)c2ccc(F)cc2)cc1 |  |  | inhibition [12]: > 50% |
| CN(CCOc1cc(COc2cccc(F)c2)on1)CC1CC1 | 314 | 0.9 |  |
| CN1CCC[C@@H]1COc1cc(COc2ccccc2)on1 | 411 | 23.1 |  |
| CN1CCC[C@H]1COc1cc(COc2cccc(F)c2)on1 | 687 | 0.7 |  |
| CN1CCC[C@H]1COc1cc(COc2ccccc2)on1.Cl | 665 | 3.4 | Papp at 18 h [4]: 2 to 4 ×10⁻⁶ cm/s |
| Clc1cccc(OCc2cc(OC[C@@H]3CCCN3)no2)c1.O=C(O)C(F)(F)F | > 10000 | 2.6 | Activity [3]: inactive; Papp at 18 h [4]: 2 to 4 ×10⁻⁶ cm/s; inhibition [5]: < 50% |
| Clc1ccccc1OCc1cc(OC[C@@H]2CCCN2)no1 | 165 | 2.7 | Ki [8]: 2110 nM; Ki [9]: > 10000 nM; inhibition [7]: > 50%; Ki [10]: 2950 nM; inhibition [11]: > 50%; inhibition [12]: < 50% |
| c1ccc(OCc2cc(N3CCOCC3)no2)cc1 | > 10000 | > 10000 | inhibition [5]: < 50%; inhibition [7]: < 50% |
| Clc1cccc(OCc2cc(N3CCNCC3)no2)c1 | 687 | 36.5 |  |
| O=C(c1cc(OC[C@@H]2CCCN2)no1)N1CCc2ccccc21 | > 10000 | 13.9 | inhibition [5]: < 50% |
| CN1CCN(c2cc(COc3ccccc3)on2)CC1 | 2200 | 63.9 |  |
| Clc1ccc(OCc2cc(OC[C@@H]3CCCN3)no2)cc1 | 139 | 13 |  |
| CCNCCOc1cc(COc2ccccc2)on1 | 987 | 3.7 |  |
| c1ccc(SCc2cc(OC[C@@H]3CCCN3)no2)cc1 | 1030 | 65.4 |  |
